Results: patent publication US8906897B2, “Antimicrobial agents based on hemin derivatives” (Obschestvo S Ogranichennoi Otvetstvennostiyu …, priority 2009, dated 2014)

Experiments:
Experiment in all cases: Specific activity against resistant bacterial strains
Format in all cases: cell-based
[1] = system: Staphylococcus aureus No. 25923 ATCC; settings: St. aureus 25923; 24 h, 36° C.
Protocol: (§1) The tested agents were water-soluble hemin derivatives (compounds VII and XVIII) or DMSO-soluble derivatives (compounds VIII, XV, and XIV). Vancomycin was the reference compound. Each compound was tested in three replicas.
(§2) Sterile single-use flat-bottomed 96-well plates, Petri dishes, pipettes, tips, and test tubes (Pan-Eco, Moscow) were used in the study.
(§3) The nutritional media used were as follows. A working Mueller Hinton broth was prepared from dry media (Mueller Hinton broth, Acumedia, Baltimore) and sterilized by autoclaving at 121° C. for 15 min.
(§4) Staphylococcus aureus was cultured on the Tripticase Soy Agar (BBL) commercially available dry medium. Enterococcus faecalis was cultured on the Columbia Agar Base (BBL) commercially available dry medium. These media were sterilized by autoclaving at 121° C. for 15 min.
(§5) Bacterial inoculum was fixed and equal to 5×10^5 CFU/mL.
(§6) For water-soluble compounds, wells from 2nd through 8th were added with the solvent (water) in an amount of 15 μL per well, then the 1st well was added with 30 μL of the stock solution of the tested compound in water with a concentration of 1×10^3M, and the concentration was adjusted to 0.007×10^3 M by serial twofold dilutions. A 10-μL portion was taken from every well, and 190 μL of the bacterial culture (10^5 CFU) was added per well.
(§7) For DMSO-soluble compounds, wells from 2nd through 8th were added with the solvent (DMSO) in an amount of 10 μL per well, then the 1st well was added with 20 μL of the stock solution of the tested compound in […] with a concentration of 5×10^3M, and the concentration was adjusted to 0.039×10^3 M by serial twofold dilutions. A 2-μL portion was taken from each well, and 198 μL of the bacterial culture (10^5 CFU) was added per well.
(§8) The control comprised wells free of tested compounds (culture growth control). In addition, purity control of nutritional media and solvents was used. Plates were incubated in a thermostat at 36° C. for 24 hours.
(§9) Culture growth was evaluated visually by comparison of how microorganisms grew in the presence of tested compounds and in the absence of them. MSC (the minimal suppressing concentration) was set equal to the last dilution of a tested agent which suppressed bacterial culture growth.

[2] = system: Staphylococcus epidermidis No. 533; settings: St. epiderm 533; 24 h, 36° C.
Protocol: as §1, §2, §3, §4, §5, §6, §7, §8, §9

[3] = system: Staphylococcus aureus No. 100 KC; settings: St. aureus 100 KC; 24 h, 36° C.
Protocol: as §1, §2, §3, §4, §5, §6, §7, §8, §9

[4] = system: Enterococcus faecalis No. 559; settings: Ent. faecalis 559; 24 h, 36° C.
Protocol: as §1, §2, §3, §4, §5, §6, §7, §8, §9

[5] = system: Enterococcus faecium No. 569; settings: Ent. faecium 569; 24 h, 36° C.

| Compound | MICs for hemin derivatives against Gr+ strains [1] | MICs for hemin derivatives against Gr+ strains [2] [µM] | MICs for hemin derivatives against Gr+ strains [3] [µM] | MICs for hemin derivatives against Gr+ strains [4] [µM] | MICs for hemin derivatives against Gr+ strains [5] |
| --- | --- | --- | --- | --- | --- |
| C=CC1=C(C)c2cc3[n-]c(cc4nc(cc5[n-]c(cc1n2)c(C)c5CCC(=O)NCCO)C(CCC(=O)NCCO)=C4C)c(C)c3C=C.[Cl-].[Fe+3] [Compound XIV, Protohemin IX 6,7-bis-N-(2-Hydroxyethyl)amide] | 5.21e-06 M | 5.21 | >50 | 6.25 | >5e-05 M |
| C=CC1=C(C)c2cc3[n-]c(cc4nc(cc5[n-]c(cc1n2)c(C)c5CCC(=O)N[C@@H](CCC(=O)N[C@@H](CCCNC(=N)N)C(=O)OC)C(=O)N[C@@H](CCCNC(=N)N)C(=O)OC)C(CCC(=O)N[C@@H](CCC(=O)N[C@@H](CCCNC(=N)N)C(=O)OC)C(=O)N[C@@H](CCCNC(=N)N)C(=O)OC)=C4C)c(C)c3C=C.[Cl-].[Fe+3] [Compound XVIII, 6,7-bis[bis(N^α-L-Arginyl Methyl Ester)-L-Glutamyl]-Protohemin IX] | 7.8e-07 M | 0.78 | 1.56 | 0.78 | 6.25e-06 M |
| C=CC1=C(C)c2cc3[n-]c(cc4[n-]c(cc5nc(cc1n2)C(C)=C5C=C)c(C)c4CCC(=O)O)c(CCC(=O)O)c3C.[Cl-].[Fe+3] [Hem, hemin] | >1e-05 M | >10 | >10 | >10 | >1e-05 M |
| C=CC1=C(C)c2cc3[n-]c(cc4nc(cc5[n-]c(cc1n2)c(C)c5CCC(=O)N[C@@H](CO)C(=O)OC)C(CCC(=O)N[C@@H](CO)C(=O)OC)=C4C)c(C)c3C=C.[Cl-].[Fe+3] [VIII] | 2.6e-06 M | 5.21 | 6.25 | 3.12 | >5.0. ×10^−5 M |
| C=CC1=C(C)c2cc3[n-]c(cc4nc(cc5[n-]c(cc1n2)c(C)c5CCC(=O)N[C@@H](CCCNC(=N)N)C(=O)OC)C(CCC(=O)N[C@@H](CCCNC(=N)N)C(=O)OC)=C4C)c(C)c3C=C.[Cl-].[Fe+3] [VII] | 2.5. ×10^−5 M | 25 | 50 | 25 | >5e-05 M |
